Measurements from patent US20260234165A1, “MACROCYCLIC COMPOUNDS, PREPARATION METHOD THEREFOR, AND USE THEREOF” (GENFLEET THERAPEUTICS (SHANGHAI) INC., priority 2004, published 2026).
Where two headings read alike, the source gives them in different places.

Key:
[1] = system: p-ERK in AsPC-1 cells (KRAS G12D mutation); assay: Cell p-ERK assay (HTRF) in AsPC-1 cells; type: cell-based, human; settings: AsPC-1 cells, 3 h compound incubation, HTRF p-ERK T202/Y204, read-out: AsPC-1 p-ERK IC50
Outline: (§1)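 AsPC-1 (10000/well) or NCI-H441 (20000/well) cells were seeded in RPMI-1640 with 10% FBS, grown overnight, then exposed to 3.16-fold compound dilutions (0.1% DMSO) for 3 h at 37 °C. Lysates were read for phospho-ERK T202/Y204 by HTRF; IC50 came from four-parameter fits of inhibition versus DMSO and blank wells.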

[2] = system: p-ERK in NCI-H441 cells (KRAS G12V mutation); assay: Cell p-ERK assay (HTRF) in NCI-H441 cells; type: cell-based, human; settings: NCI-H441 cells, 3 h compound incubation, HTRF p-ERK T202/Y204, read-out: H441 p-ERK IC50
Outline: as §1

Structure (SMILES) | IC50 ([1]; Homo sapiens, ASPC1, 3 h) [nM] | IC50 ([2]; Homo sapiens, NCI-H441, 3 h) [nM] | IC50 [1] [nM] | IC50 [2] [nM]
CCn1c(-c2cc(N3CCN4CC5(CC5)OC[C@@H]4C3)cnc2[C@H](C)OC)c2c3cc(ccc31)-c1csc(n1)C[C@H](NC(=O)[C@H]1[C@H](C)[C@@H]1C)C(=O)N1CCC[C@H](N1)C(=O)OCC1(CC1)C2 (atropisomer, axis not shown; (Ra)) [Compound Z13] | 2.24 | 0.88 |  | 
CCn1c(-c2cc(C#C[C@@H]3COCCN3C)cnc2[C@H](C)OC)c2c3cc(ccc31)-c1csc(n1)C[C@H](NC(=O)[C@H]1[C@H](C)[C@@H]1C)C(=O)N1CCC[C@H](N1)C(=O)OCC(C)(C)C2 (atropisomer, axis not shown; (Ra)) [Compound Z672, (1r,2R,3S)—N-((6^3S,4S,Z)-1^1-ethyl-(Ra)-1^2-(2-((S)-1-methoxyethyl)-5-(((R)-4-methylmorpholin-3-yl)ethynyl)pyridin-3-yl)-10,10-dimethyl-5,7-dioxo-6^1,6^2,6^3,6^4,6^5,6^6hexahydro-1^1H-8-oxa-2(4,2)-thiazola-1(5,3)-indola-6(1,3)-pyridazinacycloundecaphane-4-yl)-2,3-dimethylcyclopropane-1-carboxamide] | 0.39 | 0.39 |  | 
CO[C@@H](C)c1ncc(C#CCN2CCCOCC2)cc1-c1c2c3cc(ccc3n1CC(F)(F)F)-c1csc(n1)C[C@H](NC(=O)[C@H]1[C@H](C)[C@@H]1C)C(=O)N1CCC[C@H](N1)C(=O)OCC(C)(C)C2 (atropisomer, axis not shown; (Ra)) [Compound Z700, N-((6^3S,4S,Z)-1^1-(2,2,2-trifluoroethyl)-(Ra)-1^2-(2-((S)-1-methoxyethyl)-(5-(3-(1,4-oxazepan-4-yl)prop-1-yn-1-yl))-pyridin-3-yl)-10,10-dimethyl-5,7-dioxo-6^1,6^2,6^3,6^4,6^5,6^6-hexahydro-1^1H-8-oxa-2(4,2)-thiazola-1(5,3)-indola-6(1,3)-pyridazinacycloundecaphane-4-yl)-2,3-dimethylcyclopropane-1-carboxamide] |  |  | 0.16 | 0.2
CCn1c(-c2cc(C#CCN3C4CCC3COC4)cnc2[C@H](C)OC)c2c3cc(ccc31)-c1csc(n1)C[C@H](NC(=O)[C@H]1[C@H](C)[C@@H]1C)C(=O)N1CCC[C@H](N1)C(=O)OCC(C)(C)C2 (atropisomer, axis not shown; (Ra)) [Compound Z711, (1r,2R,3S)—N-((6^3S,4S,Z)—(Ra)-1^2-(5-(3-(3-oxa-8-azabicyclo[3.2.1]octan-8-yl)prop-1-yn-1-yl)-2-((S)-1-methoxyethyl)pyridin-3-yl)-1^1-ethyl-10,10-dimethyl-5,7-dioxo-6^1,6^2,6^3,6^4,6^5,6^6-hexahydro-1^1H-8-oxa-2(4,2)-thiazola-1(5,3)-indola-6(1,3)-pyridazinacycloundecaphane-4-yl)-2,3-dimethylcyclopropane-1-carboxamide] |  |  | 0.32 | 0.23
CCn1c(-c2cc(C#CCN3CCC(C(F)(F)F)CC3)cnc2[C@H](C)OC)c2c3cc(ccc31)-c1csc(n1)C[C@H](NC(=O)[C@H]1[C@H](C)[C@@H]1C)C(=O)N1CCC[C@H](N1)C(=O)OCC(C)(C)C2 (atropisomer, axis not shown; (Ra)) [Compound Z778] | 1.53 | 0.37 |  | 
CCn1c(-c2cc(C#CCN(C)CCOC)cnc2[C@H](C)OC)c2c3cc(ccc31)-c1csc(n1)C[C@H](NC(=O)[C@H]1[C@H](C)[C@@H]1C)C(=O)N1CCC[C@H](N1)C(=O)OCC(C)(C)C2 (atropisomer, axis not shown; (Ra)) [Compound Z788] |  |  | 0.38 | 0.19
CCn1c(-c2cc(C#CCN3CCN(C)C(=O)C3)cnc2[C@H](C)OC)c2c3cc(ccc31)-c1csc(n1)C[C@H](NC(=O)[C@H]1[C@H](C)[C@@H]1C)C(=O)N1CCC[C@H](N1)C(=O)OCC(C)(C)C2 (atropisomer, axis not shown; (Ra)) [Compound Z793] | 0.19 | 0.09 |  | 
CCn1c(-c2cc(C#CCN3CCCN(C)CC3)cnc2[C@H](C)OC)c2c3cc(ccc31)-c1csc(n1)C[C@H](NC(=O)[C@H]1[C@H](C)[C@@H]1C)C(=O)N1CCC[C@H](N1)C(=O)OCC(C)(C)C2 (atropisomer, axis not shown; (Ra)) [Compound Z802, (1r,2R,3S)—N-((6^3S,4S,Z)-1^2-(5-(3-(4-methyl-1,4-diaza-1-yl)prop-1-yn-1-yl)-(Ra)-2-((S)-1-methoxyethyl)pyridin-3-yl)-1^1-ethyl-10,10-dimethyl-5,7-dioxo-6^1,6^2,6^3,6^4,6^5,6^6-hexahydro-1^1H-8-oxa-2(4,2)-thiazola-1(5,3)-indola-6(1,3)-pyridazinacycloundecaphane-4-yl)-2,3-dimethylcyclopropane-1-carboxamide] | 0.2 | 0.4 |  | 
CCn1c(-c2cc(C#CCN3CCOC[C@H]3C)cnc2[C@H](C)OC)c2c3cc(ccc31)-c1csc(n1)C[C@H](NC(=O)[C@H]1[C@H](C)[C@@H]1C)C(=O)N1CCCC(N1)C(=O)OCC(C)(C)C2 (atropisomer, axis not shown; (Ra)) [Compound Z813] |  |  | 0.08 | 0.08
CCn1c(-c2cc(C#CCN3CCS(=O)(=O)CC3)cnc2[C@H](C)OC)c2c3cc(ccc31)-c1csc(n1)C[C@H](NC(=O)[C@H]1[C@H](C)[C@@H]1C)C(=O)N1CCC[C@H](N1)C(=O)OCC(C)(C)C2 (atropisomer, axis not shown; (Ra)) [Compound Z838, (1r,2R,3S)—N-((6^3S,4S,Z)—(Ra)-1^2-(5-(3-(1,1-dioxidothiomorpholino)prop-1-yn-1-yl)-2-((S)-1-methoxyethyl)pyridin-3-yl)-1^1-ethyl-10,10-dimethyl-5,7-dioxo-6^1,6^2,6^3,6^4,6^5,6^6-hexahydro-1^1H-8-oxa-2(4,2)-thiazola-1(5,3)-indola-6(1,3)-pyridazinacycloundecaphane-4-yl)-2,3-dimethylcyclopropane-1-carboxamide] | 0.08 | 0.15 |  | 
CCn1c(-c2cc(C#CCN3CCS(=O)(=O)CC3)cnc2[C@H](C)OC)c2c3cc(ccc31)-c1csc(n1)C[C@H](Nc1nnc3cc(C)ccn13)C(=O)N1CCC[C@H](N1)C(=O)OCC(C)(C)C2 (atropisomer, axis not shown; (Ra)) [Compound Z911, (6^3S,4S,Z)—(Ra)-1^2-(5-(3-(1,1-dioxidothiomorpholino)prop-1-yn-1-yl)-2-((S)-1-methoxyethyl)pyridin-3-yl)-1^1-ethyl-10,10-dimethyl-4-((7-methyl-[1,2,4]triazolo[4,3-a]pyridin-3-yl)amino)-6^1,6^2,6^3,6^4,6^5,6^6-hexahydro-1^1H-8-oxa-2(4,2)-thiazola-1(5,3)-indola-6(1.3)-pyridazinacycloundecaphane-5,7-dione] | 2.23 | 0.74 |  | 
CCn1c(-c2cc(C#CCN3CCCOCC3)cnc2[C@H](C)OC)c2c3cc(ccc31)-c1csc(n1)C[C@H](NC(=O)CC1CC1)C(=O)N1CCC[C@H](N1)C(=O)OCC(C)(C)C2 (atropisomer, axis not shown; (Ra)) [Compound Z915] | 1.26 | 0.68 |  | 
CCn1c(-c2cc(C#CCN3CCCOCC3)cnc2C(C)C)c2c3cc(ccc31)-c1csc(n1)C[C@H](NC(=O)[C@H]1[C@H](C)[C@@H]1C)C(=O)N1CCC[C@H](N1)C(=O)OCC(C)(C)C2 (atropisomer, axis not shown; (Sa)) [Compound Z811-2, (1r,2R,3S)—N-((6^3S,4S,Z)—(Sa)-1-(5-(3-(1,4-oxazepan-4-yl)prop-1-yn-1-yl)-2-isopropylpyridin-3-yl)-1^1-ethyl-10,10-dimethyl-5,7-dioxo-6^1,6^2,6^3,6^4,6^5,6^6-hexahydro-1^1H-8-oxa-2(4,2)-thiazola-1(5,3)-indola-6(1,3)-pyridazinacycloundecaphane-4-yl)-2,3-dimethylcyclopropane-1-carboxamide] |  |  | 0.58 | 0.21
CCn1c(-c2cc(N3CCN(CCS(C)(=O)=O)CC3)cnc2[C@H](C)OC)c2c3cc(ccc31)-c1csc(n1)C[C@H](NC(=O)[C@H]1[C@H](C)[C@@H]1C)C(=O)N1CCC[C@H](N1)C(=O)OCC1(CC1)C2 (single isomer, unassigned) [Compound Z367] | 7.29 | 2.1 |  | 
CCO[C@@H](C)c1ncc(N2CCN(CCS(C)(=O)=O)CC2)cc1-c1c2c3cc(ccc3n1CC)-c1csc(n1)C[C@H](NC(=O)[C@H]1[C@H](C)[C@@H]1C)C(=O)N1CCC[C@H](N1)C(=O)OCC1(CC1)C2 (single isomer, unassigned) [Compound Z378-1] | 10.6 | 4.64 |  | 
CCn1c(-c2cc(C#CCN3CCCOCC3)cnc2[C@H](C)OC)c2c3cc(ccc31)-c1csc(n1)C[C@H](NC(=O)[C@H]1[C@H](C)[C@@H]1C)C(=O)N1CCC[C@H](N1)C(=O)OCC(C)(C)C2 (single isomer, unassigned) [Compound Z504] | 0.16 | 0.55 |  | 
CCn1c(-c2cc(C#CCN3CCC3)cnc2[C@H](C)OC)c2c3cc(ccc31)-c1csc(n1)C[C@H](NC(=O)[C@H]1[C@H](C)[C@@H]1C)C(=O)N1CCC[C@H](N1)C(=O)OCC(C)(C)C2 (single isomer, unassigned) [Compound Z554] | 0.67 | 0.42 |  | 
CCn1c(-c2cc(C#CCN3CCCOCC3)cnc2[C@H](C)OC)c2c3cc(ccc31)-c1csc(n1)C[C@H](NC(=O)[C@H]1C[C@@H]1C)C(=O)N1CCC[C@H](N1)C(=O)OCC(C)(C)C2 (single isomer, unassigned) [Compound Z604] | 0.51 | 0.26 |  | 
CCn1c(-c2cc(C#CCN3CCCOCC3)cnc2[C@H](C)OC)c2c3cc(ccc31)-c1csc(n1)C[C@H](NC(=O)CC(C)C)C(=O)N1CCC[C@H](N1)C(=O)OCC(C)(C)C2 (single isomer, unassigned) [Compound Z803] | 0.85 | 1.14 |  | 
